Measured values as given in PubChem BioAssay AID1996.
≈ marks a conversion by molar mass, not a printed value. Non-standard residues stand in square brackets, D forms with d. Residues, ends and D or L forms follow the SMILES beside them. pGlu = O=C1CC[C@@H](C(=O)O)N1; Thz = O=C(O)[C@@H]1CSCN1

Settings: buffer; pH 7.4; 200.0 µM
Work on `COc1ccc(/C=C/C(=O)Nc2cc(S(=O)(=O)N3CCOCC3)ccc2OC)cc1` yielded a solubility kinetic of 8 µg/mL (≈ 18.5 µM). `CCc1ccc(C2CC(=O)N(c3cccc(F)c3)C3=C2C(=O)OC3)cc1` (stereo not given) gave a solubility kinetic of 9.6 µg/mL (≈ 27.3 µM). With `CN(Cc1ccco1)C(=O)CN1C(=O)NC2(CCCC2)C1=O` the solubility kinetic was 43 µg/mL (≈ 141 µM). With `Cc1ccccc1NC(=O)c1cc2ccccc2o1` the solubility kinetic was 33.7 µg/mL (≈ 134 µM). With `O=C(NCc1ccccc1Cl)[C@@H]1CCCN1S(=O)(=O)c1ccc(Cl)cc1` the solubility kinetic was 38.4 µg/mL (≈ 92.9 µM). With `CC(C)C(NC(=O)c1ccco1)C(=O)NC1CCCCCC1` (stereo not given) the solubility kinetic was 37.8 µg/mL (≈ 123 µM). In the case of `Cc1cccc(C)c1NC(=O)CNC(=O)C1CCCC1`, the solubility kinetic is reported as > 41.2 µg/mL. Molecule `COc1ccc(NC(=O)CCN2C(=O)c3ccccc3C2=O)cc1` has a solubility kinetic of 23.1 µg/mL (≈ 71.2 µM). In the case of `CC(C)Cn1c(=O)c2c(nc3n2CCS3)n(C)c1=O`, the solubility kinetic is reported as > 42.1 µg/mL. Work on `Cc1ccccc1NC(=O)N1CCC(C(=O)c2ccc(F)cc2)CC1` yielded a solubility kinetic of 33.4 µg/mL (≈ 98.1 µM). `CC(C)OC(=O)c1ccc(COC(=O)CNC(=O)c2ccco2)cc1` gave a solubility kinetic of 34.8 µg/mL (≈ 101 µM). Molecule `COc1ccc(OC)c2nc3c(cc12)CCC3` has a solubility kinetic of 29 µg/mL (≈ 126 µM). Molecule `O=C(COc1cccnc1[N+](=O)[O-])c1ccc(Cl)s1` has a solubility kinetic of 37.2 µg/mL (≈ 125 µM). Work on `Cc1cnc(NC(=O)Cc2ccc(C)c(C)c2)s1` yielded a solubility kinetic of 2 µg/mL (≈ 7.68 µM). `CN1CCN(S(=O)(=O)Cc2ccc(Cl)cc2)CC1` showed a solubility kinetic of 33.8 µg/mL (≈ 117 µM). `COc1ccc(NC(=O)CNC(=O)Cc2cccc3ccccc23)cc1` gave a solubility kinetic of 4.3 µg/mL (≈ 12.3 µM). For `Cc1csc(SC(C)C(=O)NCC2CCCO2)n1` (stereo not given), the solubility kinetic was > 43 µg/mL. `COc1cc(C)cc(CN2CC=C(c3ccccc3)CC2)c1O` showed a solubility kinetic of 12.8 µg/mL (≈ 41.4 µM). In the case of `O=C(c1ccc2c(c1)OCO2)C1CCCN(Cc2ccccn2)C1` (stereo not given), the solubility kinetic is reported as 32.8 µg/mL (≈ 101 µM). In the case of `N#Cc1cccc(S(=O)(=O)NCCOc2ccccc2F)c1`, the solubility kinetic is reported as > 48.1 µg/mL. For `Cc1cc(=O)[nH]c(Nc2cccc(F)c2)n1`, the solubility kinetic was > 32.9 µg/mL. In the case of `N#C/C(=C\c1ccccc1)C(=O)Nc1nncs1`, the solubility kinetic is reported as > 38.4 µg/mL. With `CN(CCCC(=O)N1CCN(c2ncccn2)CC1)S(=O)(=O)c1ccc(F)cc1` the solubility kinetic was > 63.2 µg/mL. In the case of `Cc1oc(C(N)=O)nc1-c1ccccc1`, the solubility kinetic is reported as > 30.3 µg/mL. With `CC1CN(CC(=O)Nc2ccc(S(N)(=O)=O)cc2)CC(C)O1` (stereo not given) the solubility kinetic was > 49.1 µg/mL. For `CCS(=O)(=O)Nc1cc2c3c(c1)CCN3C(=O)CC2`, the solubility kinetic was > 42.1 µg/mL. With `COc1ccc(Nc2nc3cc(C)ccc3cc2C#N)cc1` the solubility kinetic was < 0.2 µg/mL. With `COc1ccccc1NC(=O)COc1ccc(C(=O)NCC2CCCO2)cc1OC` (stereo not given) the solubility kinetic was 51.5 µg/mL (≈ 124 µM). In the case of `O=C(O)c1cc2nccc(-c3ccco3)n2n1`, the solubility kinetic is reported as > 34.4 µg/mL. With `Cc1cc(NC(=O)CN2C(=O)c3ccccc3C2=O)no1` the solubility kinetic was 37.9 µg/mL (≈ 133 µM). In the case of `COC(=O)c1cc(NC(=O)c2cccnc2)ccc1N1CCOCC1`, the solubility kinetic is reported as > 51.2 µg/mL. For `O=[N+]([O-])/C=C1\CCCCCN1`, the solubility kinetic was > 23.4 µg/mL. In the case of `Nc1cc(=O)[nH]c(SCC(=O)Nc2ccc([N+](=O)[O-])cc2)n1`, the solubility kinetic is reported as > 48.2 µg/mL. In the case of `O=Cc1cn(Cc2ccc(Br)cc2)c2ccccc12`, the solubility kinetic is reported as < 0.7 µg/mL. For `CN1CCCN(C(=O)c2ccc(Br)cc2)CC1`, the solubility kinetic was 41.4 µg/mL (≈ 139 µM). For `Cc1ccc(Nc2nnc(C)c3ccccc23)c(C)c1`, the solubility kinetic was > 39.5 µg/mL. In the case of `O=C1CN(C(=S)NC(=O)c2ccccc2[N+](=O)[O-])CCN1`, the solubility kinetic is reported as > 46.2 µg/mL. In the case of `Cc1ccccc1NC(=O)c1ccc(OCc2c(C)noc2C)cc1`, the solubility kinetic is reported as 42.3 µg/mL (≈ 126 µM). In the case of `CC(C)N1CCN(Cc2ccc3c(c2)OCCO3)CC1CCO` (stereo not given), the solubility kinetic is reported as 45.5 µg/mL (≈ 142 µM). Molecule `O=c1c2[nH]c3ccccc3c2nc2n1CCS2` has a solubility kinetic of 4.5 µg/mL (≈ 18.5 µM). With `O=C(COC(=O)CCC(=O)c1cccs1)Nc1ccccc1C(F)(F)F` the solubility kinetic was > 57.8 µg/mL. For `[Cl-].c1ccc(CNc2cccc[nH+]2)cc1`, the solubility kinetic was > 33.1 µg/mL. Work on `Cc1nc(C(F)(F)F)ccc1C(=O)N1CCCCC1` yielded a solubility kinetic of 36.5 µg/mL (≈ 134 µM). Work on `COc1ccc(/C=C2\N=C(c3ccc(C)cc3)OC2=O)cc1` yielded a solubility kinetic of 3.5 µg/mL (≈ 11.9 µM). With `CC(NC(=O)COC(=O)c1cccnc1Cl)C12CC3CC(CC(C3)C1)C2` (stereo not given) the solubility kinetic was 52.4 µg/mL (≈ 139 µM). Molecule `O=C(Cc1cccc2ccccc12)NCCc1ccccc1` has a solubility kinetic of 7.1 µg/mL (≈ 24.5 µM). For `O=C1CC[C@@H](C(=O)N2CSC[C@H]2C(=O)O)N1` ([pGlu]-[Thz]-OH), the solubility kinetic was > 36.6 µg/mL. In the case of `COc1ccccc1NC(=O)c1ccccc1Oc1ccccc1`, the solubility kinetic is reported as < 0.7 µg/mL. In the case of `CC(=O)NC1(C(F)(F)F)NC(=O)N(CCc2ccccc2)C1=O` (stereo not given), the solubility kinetic is reported as > 49.4 µg/mL. `CCc1ccc(NS(=O)(=O)c2ccc3[nH]c(=O)[nH]c3c2)cc1` gave a solubility kinetic of 5.5 µg/mL (≈ 17.3 µM). `O=C(Nc1ccc2ccccc2c1)C(=O)C1C(=O)Nc2ccccc21` (stereo not given) gave a solubility kinetic of 3.7 µg/mL (≈ 11.2 µM). Work on `COc1ccc(CCNC(=O)c2cccs2)cc1` yielded a solubility kinetic of 38.7 µg/mL (≈ 148 µM). `COc1ccc(CNC(=O)c2coc(=O)c3ccccc23)cc1` gave a solubility kinetic of 30.8 µg/mL (≈ 99.6 µM). For `O=C(COC(=O)c1ccc([N+](=O)[O-])o1)Nc1ncc(Cl)cc1Cl`, the solubility kinetic was > 54 µg/mL. For `Brc1ccc(-c2noc(-c3ccccc3)n2)o1`, the solubility kinetic was < 0.3 µg/mL. For `Cc1ccc(C(=O)NCN2CCN(c3ccccc3)CC2)cc1`, the solubility kinetic was > 46.4 µg/mL. For `CC(C)(C)NC(=O)COc1ccc2oc3c(c2c1)CCCC3`, the solubility kinetic was 2.2 µg/mL (≈ 7.3 µM). In the case of `COC(=O)[C@@H](NC(=O)NCCC1=CCCCC1)C(C)C`, the solubility kinetic is reported as > 42.4 µg/mL. For `O=C(NCC1CCCO1)c1cc(-c2ccccc2F)no1` (stereo not given), the solubility kinetic was 42.4 µg/mL (≈ 146 µM). Work on `O=C(COC(=O)/C=C/c1cccc([N+](=O)[O-])c1)NCc1ccco1` yielded a solubility kinetic of 18.5 µg/mL (≈ 56 µM).
